# Literature values, collected in patent US20120282652A1, “PREPARATION OF PEPTIDE MIXTURES BY PROTEASE CATALYSIS DESIGNED TO PROVIDE USEFUL BIOLOGICAL AND PHYSICAL PROPERTIES” (priority 2011, published 2012).
# Legend:
# [1] = Cheng et al.
# [2] = test system: S. aureus, E. coli, and P. aeruginosa; details: peptide synthesized by traditional chemical methods
substance,measurement,setting,value
[γ-Glu-Cys]4-Gly [[(γ-EC)4]-Gly],order of binding efficiency of the metals,[1],Cd>Zn>Ni>Co
[γ-Glu-Cys]2-Gly,Cd(II) at which binding saturated,"absorbance at 240 nm, Mehra",0.5 equivalents
same,Cd(II)/peptide ratio up to which absorption intensity is enhanced,"absorption at 250 nm, Kobayashi and Yoshimura",≤ 1.4
LKLLKKLLKKLKKLLKKL [amphipathic model peptide synthesized by traditional chemical methods],antimicrobial activity compared with diblock KKKKKKKKKLLLLLLLLL or alternating KLKLKLKLKLKLKLKLKL,[2],better antimicrobial activity
